Experimental data as given in patent publication US6001880A, “Alkylenediamine derivative, anti-ulcer drug, and antibacterial drug” (Shiseido Co., Ltd., priority 1997, dated 1999).

Key:
mice = system: mice; design: species or system mouse (male Slc:ICR); settings: mouse, in vivo
Method: AT: Single Dose Toxicity Pretest
Male Slc:ICR mice (5-week-old) were used. Each group has 3 to 5 mice and each mouse was fasted, but allowed free access to water, for 4 to 5 hours from 9 a.m. in the test day. Then, 2,000 mg/10 ml/kg of the sample compound dissolved or suspended in an aqueous solution of 0.5% sodium carboxymethyl cellulose was orally administered thereto. To a control, only the vehicle was administered. […] The body weight was measured before and after the fasting as well as at the same time everyday. The dead animals were immediately subjected to autopsy and their organs were observed by naked eyes. Also, the living animals were sacrificed with ether or carbon dioxide one week after the administration and then their organs were observed by naked eyes.
The toxicity at the single dose of 2,000 mg/kg of the sample compound was expressed as being classified into 5 levels.
5: mortality rate is 0%; no toxicity is found at all both in behavior and organs.
4: Mortality rate is 0%; while no toxicity is found in organs, slight toxicity is observed in behavior or body weight increase.
3: While there is a dead animal (though not all the animals are dead), no toxicity is found in organs.
2: Regardless of whether there is a dead animal or not, toxicity is found in organs.
1: All the animals are dead.

[1] = system: Helicobacter pyroli (HP NCTC 11637); test: AHP: Antibacterial Activity Test Against Helicobacter pyroli (agar dilution); type: cell-based, Helicobacter pyroli NCTC 11637; settings: MIC 100 μg/ml or more; colony number vs control plate, 250 mM solution of sample compound
Method: AHP: Antibacterial Activity Test Against Helicobacter pyroli The minimum inhibitory concentration (MIC) against Helicobacter pyroli (microacrophilic gram-negative bacterium which is supposed to deeply involve in pathogenesis, relapse, and recrudescence of ulcer, referred to as "HP" in the following) is measured so as to find out compounds which have antibacterial activity against Helicobacter pyroli. MICs were determined by the agar dilution method. The stock culture (-80° C.) of HP NCTC 11637 was thawed and cultured on tripticase soy agar supplemented with 5% sheep blood at 37° C. in an atmosphere of 5% O2, 10% CO2, and 85% N2. Grown colonies were transferred to the same plate and precultured for 3 days under the same condition. […] An appropriate amount of the colony grown on the plate by preculturing was suspended in Mueller Hinton broth till turbidness was recognizable by naked eyes, thereby yielding a bacterial suspension concentrate containing about 10^7 cfu/ml. […] 10 μl of the bacterial suspension for inoculation (about 10^3 cfu) was dropped by dispenser onto an MIC plate for inoculation and cultured for 7 days under the same condition as that of preculture. Thereafter, it was judged whether there had been bacteria growth or not. […] As the result of the comparison of these plates, when the number of the colony on the plate containing the sample compound was less than 90% with respect to that on the control plate, it was represented by "+". Contrary to this, when there was 90% or more, it was represented by "-".

[2] = system: isolated gastric fundic gland; test: CAP: Acid Secretion Inhibition Test In Vitro ([14C]-aminopyrine uptake); type: cell-based, rabbit (male Japanese White); settings: Oryctolagus cuniculus; final concentration 10^-5 M; histamine 10^-5 M stimulation; read-out: CAP: acid secretion inhibitory rate
Method: CAP: Acid Secretion Inhibition Test In Vitro
The acid secretion inhibitory activity in a cell level is studied. It can also be used for studying the mechanism of the effect.
First, an isolated gastric fundic gland sample was prepared. Namely, a male Japanese White rabbit (2.5 to 3 kg) was anesthetized to death with Nembutal™ and then the abdomen was incised. Immediately thereafter, the stomach was removed and, after its pyloric and cardiac antrum were severed, incised along its greater curvature into two sheets. The gastric contents adhering to the mucosal surface was washed out with ice-cooled PBS (-) and then carefully washed therein. The gastric wall was spread on a cork board with its mucosal surface facing up and the feed and mucus thereon were completely removed with sterile gauze. The mucosa was separated therefrom by a spatula and then collected in ice-cooled PBS (-). After being washed twice with PBS (-), the mucosa was minced into 2-3 mm^3 pieces by scissors. These pieces were further washed twice with a nutrient solution. The nutrient solution comprises 132.4 mM of NaCl, 5.4 mM of KCl, 5 mM of Na2 HPO4. 12H2 O, 1 mM of NaH2 PO4.2H2 O, 1.2 mM of MgSO4, 1 mM of CaCl2, 25 mM of HEPES, 2 mg/ml of glucose, and 1 mg/ml of BSA.
Into 70 ml of the nutrient solution containing 1 mg/ml of collagenase, minced mucosal pieces were dispersed and intensely stirred in a conical flask with a stirrer at 37° C. for 40 to 60 minutes. During this period, 100% O2 was sprayed on the nutrient solution surface and the pH was appropriately measured such that it was immediately adjusted to pH 7.4, when the value was therebelow, with a base. The nutrient solution was added to the reaction solution so as to attain the total amount of about 200 ml. After being filtered through a mesh, the suspension was divisionally introduced into 50 ml centrifuge tubes and left for 15 minutes such that gastric fundic gland was deposited. The supernatant was repeatedly removed by an aspirator, dispersed in the nutrient solution, and then left such that the gastric fundic gland was washed three times. At this time, without using a pipette, the suspension was alternately introduced into two centrifuge tubes so as to effect dispersion. The number of cells was counted under microscope and adjusted to 1.6×10^6 cells/ml.
Then, [^14 C]-aminopyrine uptake test was performed. After an Eppendorf tube was weighed, 10 μl (final concentration: 10^-5 M) of histamine dissolved in the above-mentioned nutrient solution, 10 μl (final concentration: […]) of the test compound dissolved in DMSO, and 10 μl (final concentration: 0.05 μCi/ml) of [^14 C]-aminopyrine diluted with the nutrient solution were introduced therein and then 970 μl of the isolated gastric fundic gland suspension prepared above was added thereto. Subsequently, this mixture was shaken at 37° C. for 40 minutes at 125 cycles/minute. After being centrifuged for 30 seconds, 200 μl of its supernatant was collected into a mini-vial, while the rest was removed by an aspirator. The gland pellet was completely dried as the tube with its lid being opened was kept for one night in a drying oven at 80° C. and then the lid was closed and the weight was determined at room temperature. Then 100 μl of 1N KOH was added thereto and the tube with its lid being closed was treated at 60° C. for 1 to 2 hours so as to dissolve the pellet. Then, the contents thereof were transferred to a mini-vial. Into the mini-vial containing the supernatant or gland pellet, 4 ml of Atomlite™ was added and then the radioactivity was measured by a liquid scintillation counter. Here, after the radioactivity of the gland pellet was corrected by using a sample in which 20 mM of NaSCN was added so as to cancel the hydrogen ion concentration gradient, the integration ratio of aminopyrine specifically trapped by the gland pellet was calculated. This experiment was performed in duplicate.
Here, its principle will be briefly explained. […]

[3] = system: stress ulcer formation in rats; test: WIS: Restraint and Water Immersion Stress-Induced Ulcer Inhibition Test; type: in vivo, rat (male Crj:SD or Slc:SD); settings: 100 mg/kg oral, 10 minutes before 7 h restraint and water immersion (21° C.)
Method: WIS: Restraint and Water Immersion Stress-Induced Ulcer Inhibition Test
The degree of inhibition of the stress ulcer formation is tested.
Male Crj:SD or Slc:SD rats (6 to 7-week-old) were fasted overnight, but allowed free access to water. Each group has 5 to 8 of these rats. The sample compound was dissolved or suspended in an aqueous solution of 0.3% sodium carboxymethylcellulose or 0.05% Tween 80 and then was orally administered (100 mg/10 ml/kg). To a control group, the vehicle was administered. 10 minutes later, the rats were placed in a stress cage and immersed to the level of xipfoid process in a water bath (21° C.) for 7 hours. At the end of the stress, the rats were sacrificed by inhalation of ether or carbon dioxide. Then, the stomach of each was removed, inflated by injecting 10 ml of 5% formalin neutral buffer solution, and immersed in 1% formalin neutral buffer solution for 30 minutes or more to be fixed. The stomach was incised along the greater curvature and then the length of each erosion in the glandular portion was determined under dissecting microscope. The sum of the length of erosions per stomach was defined as ulcer index (UI).
The effect obtained when 100 mg/kg of the sample compound had been administered was expressed as ulcer formation inhibitory rate (%) as follows:
ulcer formation inhibitory rate (%)=(1-(UI in sample group/UI in control

[4] = MTT: Cell Damaging and Protecting Effect Test; type: cell-based, rabbit (male Japanese White); settings: rabbit, gastric corpus mucosa cells, final concentration 10^-4 M, smaller value is better, read-out: MTT: cell damaging rate
From the text: MTT: Cell Damaging and Protecting Effect Test
It is confirmed that there is no toxicity in cell level. Those having a toxicity in cell level are inappropriate as an anti-ulcer drug.
A male Japanese White rabbit (2.5 to 3 kg) was anesthetized to death by Nembutal™ and, immediately thereafter, its stomach was removed. The greater curvature of the stomach was incised so as to remove the stomach contents therefrom. After the mucosal surface was washed with HBSS (Hanks' Balanced Salt Solution), the stomach in ice-cooled HBSS was transferred to a laboratory. Then, after the pyloric antrum was removed, the gastric corpus mucosa was separated by a spatula and then minced into 2 to 3 mm^3 pieces in BME (Basal Medium Eagle). Thereafter, these pieces were shaken at 120 to 130 cycles/minute for 15 minutes at 37° C. in BME 60 ml containing 280 U/ml of dispase and 30 to 50 U/ml of collagenase. Here, the concentration of collagenase was appropriately changed for each lot in view of the state of cells. The pieces were washed twice with EBSS (Earle's Balanced Salt Solution) containing 1 mM of EDTA and then shaken in MEM (Minimum Essential Medium) containing 1 mM of EDTA at 37° C. for 5 minutes. Subsequently, they were shaken in the dispase and collagenase having the same concentrations as those mentioned above for 15 minutes so as to remove the supernatant and then further shaken at 37° C. for 50 to 60 minutes at 120 to 130 cycles/minute. Then, after being washed twice with HBSS, Ham F12 containing 2% of Ultrocer G™ was used to attain the concentration of 1×10^6 cells/ml. Thus formed suspension was dispensed in each well of a 96-well plate by 200 μl. The plate was incubated in the atmosphere composed of 5% CO2 and 95% air at 37° C. for three days so as to attain a confluent state and then subjected to MTT assay.
The sample compound was dissolved in DMSO so as to attain a concentration of 10^-2 M and then diluted with HBSS containing 2% of Ultrocer G™ so as to attain a final concentration of 10^-4 M. To each group, which 8 wells were used for, 10 μl of MTT reagent was added immediately after 100 μl of the medium in each well was exchanged for same volume of the resulting solution of the sample compound. After being incubated in an atmosphere composed of 5% CO2 and 95% air at 37° C. for 4 hours, thus formed solution was centrifuged and then its supernatant was discarded. Subsequently, 100 μl of 100% ethanol was added to the residue so as to dissolve MTT formazan. Then, the absorbance (OD: 570 to 630) was measured by a microplate reader. This method utilizes a phenomenon in which MTT is changed to MTT formazan only by mitochondria of living cells so as to change color.
The cell damaging or cell protecting effect of the sample compound at the final concentration of 10^-4 M was expressed as cell damaging rate (%) as follows:
cell damaging rate (%)=(1-(absorbance in sample group/absorbance in control
Accordingly, the smaller value is better in the cell damaging rate.

Compound | AT: single dose toxicity level (mice) | AHP: growth class where MIC was 100 μg/ml or more [1] | inhibition at 10 µM [2] [%] | WIS: ulcer formation inhibitory rate [3] [%] | cytotoxicity at 4 h, 100 µM [4] [%]
CC(C)=CCC/C(C)=C/COc1ccc(C(=O)NCCN(C(C)C)C(C)C)cc1 [Example 7] | 5 | + (the number of the colony on the plate containing the sample compound was less than 90% with respect to that on the control plate) | 100 | 84 | 
CC(C)=CCOc1ccc(C(=O)NCCN(C(C)C)C(C)C)cn1 [Example 48] | 3 |  |  | 75 | -13
CCN(CC)CCNC(=O)c1ccc(OC/C=C(\C)CCC=C(C)C)c(OC)c1 [Example 30] | 5 |  | 100 | 84 | 
CCN(CC)CCNC(=O)c1cc(OC)c(OC)c(OC/C=C(\C)CCC=C(C)C)c1 [Example 39] | 4 |  |  | 87 | 
CCN(CC)CCNC(=O)c1ccc(OCC=C(C)C)nc1 [Example 46] | 3 |  |  | 65 | -3
CC(C)=CCC/C(C)=C/COc1ccccc1C(=O)NCCN(C)C [Example 13] |  |  | 96.6 | 75 | 19
CCN(CC)CCNC(=O)c1ccc(OC/C=C(\C)CCC=C(C)C)cc1OC/C=C(\C)CCC=C(C)C [Example 15] |  |  | 96.5 | 92 | 44
